Data as given in patent US5389638A, “Tetrahydroisoquinolines as alpha-2 antagonists and biogenic amine uptake inhibitors” (Abbott Laboratories, priority 1993, dated 1995).
Structures can show the parent of a compound that is named as a salt. Where two headings read alike, the source gives them in different places.

Key:
alpha-1 receptor = biological target: T1, alpha-1 receptor (Rattus norvegicus, UniProt P15823); test: alpha-1 receptor radioligand binding, rat liver homogenates, [3H]-prazosin
T1 sequence (P15823 1-515): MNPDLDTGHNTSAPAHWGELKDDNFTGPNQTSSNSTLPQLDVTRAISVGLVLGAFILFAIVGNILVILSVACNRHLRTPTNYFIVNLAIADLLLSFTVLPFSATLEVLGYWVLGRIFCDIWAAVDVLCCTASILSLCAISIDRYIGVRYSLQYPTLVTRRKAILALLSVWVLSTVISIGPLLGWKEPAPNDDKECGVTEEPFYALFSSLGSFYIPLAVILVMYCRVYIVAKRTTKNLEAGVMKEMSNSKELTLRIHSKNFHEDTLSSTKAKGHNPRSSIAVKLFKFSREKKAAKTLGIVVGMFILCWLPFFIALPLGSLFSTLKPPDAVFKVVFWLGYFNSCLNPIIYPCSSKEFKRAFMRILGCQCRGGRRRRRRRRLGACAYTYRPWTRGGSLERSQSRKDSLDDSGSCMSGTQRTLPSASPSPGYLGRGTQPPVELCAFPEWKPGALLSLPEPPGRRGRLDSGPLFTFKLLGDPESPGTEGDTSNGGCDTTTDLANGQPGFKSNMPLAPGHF

serotonin (5-HT) uptake = test: inhibition of [3H]-amine uptake by synaptosome preparations, cortex (serotonin); type: biochemical, rat (male Sprague-Dawley); conditions: cortex synaptosomes, [3H]-amine approx. 100 nM, 4 min, 37° C.; read-out: Biogenic amine uptake IC50 5-HT
From the text: (§1) The primary method of evaluation of biogenic amine uptake activity has been the in vitro determination of the inhibition of radioactive amine uptake by synaptosome preparations of brain tissue. Basic procedures used are those described by Snyder and Coyle (Snyder, S. H. and J. T. Coyle, Regional Differences in ^3 H-Norepinephrine and ^3 H-Dopamine Uptake into Rat Brain Homogenates, Journal of Pharmacology and Experimental Therapeutics 1969, 165: 78-86) and Wong et al. (Wong, D. T., J-S. Horng and R. W. Fuller, Kinetics of Norepinephrine Accumulation into Synaptosomes of Rat Brain-Effects of Amphetamine and Chloroamphetamines, Biochemical Pharmacology 1973, 22:311-322). Briefly, male Sprague-Dawley rats were decapitated and regions of their brains dissected according to the procedures of Glowinski and Iversen (Glowinski, J. and L. L. Iversen, Regional Studies of Catecholamines in the Rat Brain--I: The Disposition of [^3 H]-Norepinephrine, [^3 H]-Dopamine and [^3 H]-DOPA in Various Regions of the Brain, Journal of Neurochemistry 1966, 13: 655-669). Hypothalamus (norepinephrine-), cortex (serotonin) and striatum (dopamine-uptake) were homogenized in 10, 5, and 20 volumes, respectively,of 0.32M sucrose using a Teflon/glass Potter-Elvehjem tissue grinder. Samples were centrifuged at 1000×G for 10 minutes and the supernatants harvested and used in the assay. Aliquots of tissue ([…]) were added to 750 mL of Kreb's solution (composition in mM; sodium chloride 118, potassium chloride 4.0, calcium chloride 1.13, potassium dihydrogen phosphate 1.12, magnesium sulfate 1.20, sodium bicarbonate 2.4, D-glucose 5.0, disodium ethylenediaminetetraacetic acid 1.5, ascorbic acid 1.0, and Pargyline, 12.5 mM, pH=7.4, aerated with 95% oxygen, 5% carbon dioxide), 50 mL of test compound diluted in 0.3 mM ascorbic acid, and […] [^3 H]-amine, final concentration approximately 100 nM. Tissues were incubated for 4 minutes at 37° C., followed by rapid vacuum filtration over Whatman GF/B filters and washed with 50 mM Tris-HCl (pH=7.4). Nonspecific uptake was estimated in duplicate samples incubated at 0 ° C. Data were analyzed as described previously (J. F. DeBemardis, D. J. Kerkman, D. L. Arendsen, S. A. Buckner, J. J. Kyncl, and A. A. Hancock, Conformationally Defined Adrenergic Agents. 5. Resolution, Absolute Configuration, and Pharmacological Characterization of the Enantiomers of 2-[5,6-Dihyroxy-1,2,3,4-tetrahydro-1-1-naphthyl]imidazoline: A Potent Agonist at a-Adrenoceptors, Journal of Medicinal Chemistry 1987, 30: 1011-1017).

dopamine uptake = test: inhibition of [3H]-amine uptake by synaptosome preparations, striatum (dopamine); type: biochemical, rat (male Sprague-Dawley); conditions: striatum synaptosomes, [3H]-amine approx. 100 nM, 4 min, 37° C.; read-out: Biogenic amine uptake IC50 DA
From the text: as §1

alpha-2 receptor = alpha-2 receptor radioligand binding, rat cerebral cortices, [3H]-rauwolscine; conditions: for Ki: rat cerebral cortices, [3H]-rauwolscine, read-out: Radioligand binding Ki α2; for Alpha-2 selectivity Ki α1/Ki α2: ratio Ki α1/Ki α2
norepinephrine uptake = test: inhibition of [3H]-amine uptake by synaptosome preparations, hypothalamus (norepinephrine); type: biochemical, rat (male Sprague-Dawley); conditions: hypothalamus synaptosomes, [3H]-amine approx. 100 nM, 4 min, 37° C.; read-out: Biogenic amine uptake IC50 NE
From the text: as §1

Row | Compound | Ki (alpha-1 receptor) | IC50 (serotonin (5-HT) uptake) | IC50 (dopamine uptake) | Ki (alpha-2 receptor) | Alpha-2 selectivity Ki α1/Ki α2 (alpha-2 receptor) | IC50 (norepinephrine uptake) | Ki (alpha-1 receptor; read-out: Radioligand binding Ki α1, rat liver homogenates, [3H]-prazosin)
1 | COc1ccc2c(c1)CCN(C)C2CN1CCC(c2ccccc2)C1 (stereo not shown) [Example 1, 6-Methoxy-2-methyl-1-(3-phenylpyrrolidino)methyl-1,2,3,4-tetrahydroisoquinoline dihydrochloride] | 120 nM | 9180 nM | 28300 nM | 6.2 nM | 19 | 4430 nM | –
2 | COc1ccc2c(c1)CCN(C)C2CN(C)CCc1ccccc1 (stereo not shown) [Example 2, 6-Methoxy-2-methyl-1-((N-methyl-N-(2-phenylethyl)amino)methyl)-1,2,3,4-tetrahydroisoquinoline dihydrochloride] | 175 nM | 7710 nM | 26500 nM | 4.6 nM | 38 | 1240 nM | –
3 | COc1cccc2c1CCN(C)C2CN1CCC(c2ccccc2)C1 (stereo not shown) [Example 3, 5-Methoxy-2-methyl-1-(3-phenylpyrrolidino)methyl-1,2,3,4-tetrahydroisoquinoline dihydrochloride] | 306 nM | 4450 nM | 9400 nM | 6 nM | 51 | 621 nM | –
4 | CN(CCc1ccccc1)CC1c2ccc3c(c2CCN1C)OCO3 (stereo not shown) [Example 4, 5,6-Methylenedioxy-2-methyl-1-((N-methyl-N-(2-phenylethyl)amino)methyl)-1,2,3,4-tetrahydroisoquinoline dihydrochloride] | 621 nM | 2600 nM | 24700 nM | 2.6 nM | 238 | 885 nM | –
5 | CN1CCc2c(ccc3c2OCO3)C1CN1CCC(c2ccccc2)C1 (stereo not shown) [Example 5, 5,6-Methylenedioxy-2-methyl-1-N-(3-phenylpyrrolinodino)methyl-1,2,3,4-tetrahydroisoquinoline dihydrochloride] | 180 nM | 2030 nM | 11400 nM | 4.3 nM | 42 | 249 nM | –
6 | CN1CCc2cc3c(cc2C1CN1CCC(c2ccccc2)C1)OCO3 (stereo not shown) [Example 6, 6,7-Methylenedioxy-2-methyl-1-(3-phenylpyrrolidino)methyl-1,2,3,4-tetrahydroisoquinoline dimethanesulfonate] | 72 nM | – | – | 11.4 nM | 6 | – | –
7 | CN(CCc1ccccc1)CC1c2cc3c(cc2CCN1C)OCO3 (stereo not shown) [Example 7, 6,7-Methylenedioxy-2-methyl-1-((N-methyl-N-(2-phenylethyl)amino)methyl)-1,2,3,4-tetrahydroisoquinoline dihydrochloride] | 613 nM | 6270 nM | 49800 nM | 6.4 nM | 96 | 589 nM | –
8 | CN1CCc2c(ccc3c2OCO3)[C@@H]1CN1CC[C@H](c2ccccc2)C1 [Example 8, 5,6-Methylenedioxy-2-methyl-1(R)-(3'(R)-phenylpyrrolidino)methyl-1,2,3,4-tetrahydroisoquinoline dihydrochloride] | – | 1110 nM | 9300 nM | 2.5 nM | 178 | 489 nM | 446 nM
9 | CN1CCc2c(ccc3c2OCO3)[C@@H]1CN1CC[C@@H](c2ccccc2)C1 [Example 9, 5,6-Methylenedioxy-2-methyl-1(R)-[3'(S)-phenylpyrrolidino]methyl-1,2,3,4-tetrahydroisoquinoline dihyrochloride] | 168 nM | 1580 nM | 9540 nM | 2.1 nM | 80 | 426 nM | –
10 | CN1CCc2c(ccc3c2OCO3)[C@H]1CN1CC[C@H](c2ccccc2)C1 [Example 10, 5,6-Methylenedioxy-2-methyl-1(S)-[3'(R)-phenylpyrrolidino]methyl-1,2,3,4-tetrahydroisoquinoline dihydrochloride] | 374 nM | 754 nM | 11700 nM | 20.2 nM | 18.5 | 214 nM | –
11 | CN1CCc2c(ccc3c2OCO3)[C@H]1CN1CC[C@@H](c2ccccc2)C1 [Example 11, 5,6-Methylenedioxy-2-methyl-1(S)-[3'(S)-phenylpyrrolidino]methyl-1,2,3,4-tetrahydroisoquinoline dihydrochloride] | 157 nM | 1700 nM | 4950 nM | 32.5 nM | 4.8 | 116 nM | –
12 | CN(CCc1ccccc1)C[C@H]1c2ccc3c(c2CCN1C)OCO3 [Example 12, 5,6-Methylenedioxy-2-methyl-1(R)-(((N-methyl-N-phenylethyl)amino)methyl)-1,2,3,4-tetrahydroisoquinoline dihydrochloride] | 1020 nM | 1410 nM | 25500 nM | 0.98 nM | 1040 | 1290 nM | –
13 | CN(CCc1ccccc1)C[C@@H]1c2ccc3c(c2CCN1C)OCO3 [Example 13, 5,6-Methylenedioxy-2-methyl-1(S)-(((N-methyl-N-phenylethyl)amino)methyl-1,2,3,4-tetrahydroisoquinolinedihydrochloride] | 542 nM | 2890 nM | 10600 nM | 7.1 nM | 76 | 210 nM | –
14 | CNCCC(Oc1ccc(C(F)(F)F)cc1)c1ccccc1 (stereo not shown) [Fluoxetine, reference compound] | – | – | 15200 nM | – | – | 1310 nM | –
15 | COC(=O)[C@H]1[C@H]2C[C@H]3c4[nH]c5ccccc5c4CCN3C[C@H]2CC[C@@H]1O [Rauw*, Rauwolscine, reference compound] | 450 nM | – | – | – | – | > 100 nM | –
